Measurements: patent US20260344665A1, “FUNGICIDAL COMPOUND” (priority 2022, published 2026)

Tests used:
Assay type in all cases: in vivo
[1] = system: Puccinia recondita f. sp. tritici; test: Leaf painting assay in wheat seedling, Puccinia recondita preventive
Procedure: (§1) Wheat seedlings of the variety Riband (for Zymoseptoria tritici trials) or variety Arina (for Puccinia recondite trials) were grown in the glasshouse until 14d after seeding. At this time, such seedlings usually have a first leaf fully emerged (designated L1), a second leaf fully emerged (L2) and a third leaf (L3) that is partially emerged and in the process of development. Using a permanent pen, two dots were applied on the second leaf such as to generate three segments of roughly equal size: Segment A (at the base), segment B (middle part) and segment C (tip of the leaf). A stock solution of the compound of Formula (I) was produced in water and of benzovindiflupyr in DMSO at a concentration of 10,000 ppm. […] The diluted compound was applied to the middle segment of L2 using a conventional cotton stick; the cotton stick was soaked in the diluted compound and rubbed several times on the adaxial leaf surface between the two marks. One day later, the complete plant was inoculated with a fungal spore suspension using a paint brush. The spore suspension was applied until before run-off.
For infection with Puccinia recondita (preventive): The test plants were inoculated by spraying them with a spore suspension one day after application (spore suspension at 80,000 spores per ml in water supplemented with Tween20 at 0.1%). After an incubation period of 1 day at 20 °C and 95% rh, the inoculated test plants were kept at 20 °C and 60% rh in a greenhouse.
(§2) The three segments of the leaf were evaluated individually.

Zymoseptoria tritici = test: Leaf painting assay in wheat seedling, Zymoseptoria tritici preventive
Procedure: as §1
For infection with Zymoseptoria tritici (preventive), the test plants were inoculated by spraying a spore suspension on them one day after application (1.5 Mio spores per ml in water supplemented with 0.01% Tween20). After an incubation period of 4 days at 22 °C/21 °C (day/night) and 95% rh, the inoculated test plants were kept at 22 °C/21 °C (day/night) and 70% rh in a greenhouse.
as §2

[2] = system: Blumeria graminis f.sp. tritici; test: Powdery mildew assay in wheat (haustoria formation)
[3] = system: Blumeria graminis f.sp. tritici; test: Mixture with malonomicin, leaf disc, Blumeria graminis f.sp. tritici preventive; conditions: foliar, 168 h, read-out: control of fungal growth
Text: A stock solution for oligosaccharide compound according to the present invention was produced in water plus 0.025% Tween®20. Malonomicin was produced according to Law et al, 2018 (Nature Catalys is | VOL 1 | DECEMBER 2018 | 977-984). A stock solution of malonomicin was produced in water plus 0.025% Tween®20.
Assays to test efficacy of mixtures of the compound of Formula (I) in combination with malonomicin on the control of fungal pathogens in a leaf disc assay were designed for two 24 well plates.
Table 11 and Table 12: Outline of 24 well testplate (3) and testplate (4) including concentration of compounds per well. The upper number in the cell indicates the oligosaccharide compound of the present invention concentration (ppm), the lower number malonomicin concentration (ppm). Column (1) holds a dilution series of compound of Formula (I), row (4-D) hold a dilution series of malonomicin. Well 4-D-(1) represents an untreated check. This design was applied for tests including Blumeria graminis f.sp. tritici (EPPO code: ERYSGT) with preventive spray timing and Parastagonospora nodorum (EPPO code: LEPTNO) with preventive spray timing.
A first set of master plates with 1× concentrated spray solution of the compound of Formula (I) stock diluted in water with concentrations according to Table 8, Table 9, Table 11 and Table 12, respectively, was prepared. Each well contained 0.025% Tween®20. Accordingly, a second set of master plates with 1× concentrated malonomicin stock diluted in water was prepared. Each well of the second set contained 0.025% Tween®20. Leaf segments placed on agar in 24 well plates are sprayed with 8 ul of solution from the master plate containing compound of Formula (I) and the leaf segments were let to dry, followed 2 hours later by 8 ul of solution from the master plate containing malonomicin. After second sprays have dried, leaf segments are infected with fungal spores to obtain a preventive application timing. Alternatively, leaf segments infected one day before spray of the compounds are used, resulting in a curative spray timing. In addition, several plates were produced where leaf segments were sprayed 2× in absence of test compound (with only Tween®20), representing the untreated check samples. For each leaf segment percent leaf coverage of disease symptoms was assessed. Percent leaf coverage reduction relative to the untreated check was calculated. Efficacy of the mixtures was tested in duplicate and on different fungal species. Reported efficacy values are the average of two replicate results.
Blumeria graminis f.sp. tritici (EPPO Code: ERYSGT) with Preventive Spray Timing
Wheat (cultivar Kanzler) leaf segments are placed on agar in multiwell plates (24-well format) and sprayed with test solutions (8 ul per well). After drying, the leaf disks are inoculated with spores of the fungus. After appropriate incubation the activity of a compound is assessed 7 dpi (days post inoculation) as preventive fungicidal activity.

[4] = Experiment 1, 200.00 ppm, base segment, preventive
[5] = Experiment 1, 200.00 ppm, middle segment (treated), preventive
[6] = Experiment 1, 200.00 ppm, tip segment, preventive
[7] = Experiment 3, 400.00 ppm, base segment, preventive
[8] = Experiment 3, 400.00 ppm, middle segment (treated), preventive
[9] = Experiment 3, 400.00 ppm, tip segment, preventive

CC(=O)NC1C(OCC(OC2OC(CO)C(O)C(O)C2O)C2OC(OC3C(O)C(CO)OC(OC4(CO)OC(C(O)CO)C(O)C4OC4OC(CO)C(O)C(O)C4O)C3O)C(O)C(O)C2OC2OC(C(O)CO)C(O)C(O)C2OC2OCC(OC(N)=O)C(O)C2O)OC(CO)C(O)C1O (stereo not shown) [compound of Formula (I)]
% reduction fungal growth [1, 4]: 0%
% reduction fungal growth [1, 5]: 48%
% reduction fungal growth [1, 6]: 31%
% reduction fungal growth ([1]; Experiment 2, 200.00 ppm, base segment, preventive): 10%
% reduction fungal growth ([1]; Experiment 2, 200.00 ppm, middle segment (treated), preventive): 79%
% reduction fungal growth ([1]; Experiment 2, 200.00 ppm, tip segment, preventive): 38%
% reduction fungal growth [1, 7]: 16%
% reduction fungal growth [1, 8]: 98%
% reduction fungal growth [1, 9]: 99%
% reduction fungal growth ([1]; Experiment 4, 500.00 ppm, base segment, preventive): 0%
% reduction fungal growth ([1]; Experiment 4, 500.00 ppm, middle segment (treated), preventive): 69%
% reduction fungal growth ([1]; Experiment 4, 500.00 ppm, tip segment, preventive): 82%
activity against growth of fungus ([1]; leaf painting, preventive): active against growth
control on treated and above treated area ([1]; middle segment treated): provided control on the treated area (middle segment) as well as the above treated area (tip)
% reduction fungal growth (Zymoseptoria tritici; [4]): 24%
% reduction fungal growth (Zymoseptoria tritici; [5]): 93%
% reduction fungal growth (Zymoseptoria tritici; [6]): 99%
% reduction fungal growth (Zymoseptoria tritici; [7]): 1%
% reduction fungal growth (Zymoseptoria tritici; [8]): 96%
% reduction fungal growth (Zymoseptoria tritici; [9]): 100%
activity against growth of fungus (Zymoseptoria tritici; leaf painting, preventive): active against growth
control on treated and above treated area (Zymoseptoria tritici; middle segment treated): provided control on the treated area (middle segment) as well as the above treated area (tip)
minimal effective concentration ([2]; Blumeria graminis, 48 h, pre-treated wheat, read-out: concentration at which effect on haustoria formation is observed): ≥ 25 µM
activity at 1 µM ([2]; Blumeria graminis, 1 μM, 48 h after infecting, read-out: haustoria formation (% relative to control)): 106%
activity at 25 µM ([2]; Blumeria graminis, 25 μM, 48 h after infecting, read-out: haustoria formation (% relative to control)): 59.1%
activity at 100 µM ([2]; Blumeria graminis, 100 μM, 48 h after infecting, read-out: haustoria formation (% relative to control)): 66.4%
reduction of haustoria formation ([2]; pre-treated wheat): reduction of haustoria formation
inhibition of growth at 9.38 µg/mL ([3]; Formula (I) 9.38 ppm solo): 10%
inhibition of growth at 18.75 µg/mL ([3]; Formula (I) 18.75 ppm solo): 0%
inhibition of growth at 37.5 µg/mL ([3]; Formula (I) 37.5 ppm solo): 0%
inhibition of growth at 75 µg/mL ([3]; Formula (I) 75 ppm solo): 20%
inhibition of growth at 150 µg/mL ([3]; Formula (I) 150 ppm solo): 0%
inhibition of growth at 300 µg/mL ([3]; Formula (I) 300 ppm solo): 10%
inhibition of growth at 600 µg/mL ([3]; Formula (I) 600 ppm solo): 10%
